Results published in patent publication US7745222B2, “Amyloid binding assays” (priority 2006, dated 2010).

What was measured:
[1] = test system: A-beta fibrils (human A-beta 1-40); format: binding; conditions: A-beta fibrils on rat brain section; fluorescence imaging; FIG. 4-5
Description: (§1) In one embodiment, sections of Sprauge-Dawley naïve rat brain (Taconic) 10 microns in thickness were fixed with 10% formalin in phosphate buffered saline (PBS).
The clear film of A-beta 1-40 was diluted with distilled water to achieve a 6-mg/mL concentration. […] The clear solution was diluted to 1 mg/mL with PBS, pH 7.4 to obtain a final concentration of 1 mg/mL A-beta 1-40 then incubated at 37° C. on an orbital shaker at 200 RPM for 4 days.
(§2) The slides were washed with PBS three times then incubated with blocking buffer consisting of 10% normal goat serum in 3% BSA in PBS.
(§3) For the sandwich assay approach 100 μL of 1/250th dilution of anti-A-beta antibody, (Signet) was applied to the tissue. The tissue was then incubated for 1.5 hours at room temperature, or in an alternative approach, for 45 minutes at 37° C. Next, a 1/100th dilution of the secondary antibody Alexa Flour 594-goat antimouse IgG (Molecular Probes) was prepared in PBS and 100 μl was applied to the slides, which were then incubated at room temperature for 1.5 hours. […]
(§4) Microscopic examination was performed using a Leica (Leica Microsystems Inc, Bannockburn Ill.) wide-field fluorescence microscope.
(§5) The fluorescent images were quantified by calculating the sum of pixel intensity of the immunofluorescence for each amyloid species. […]

[2] = test system: soluble oligomeric A-beta (human beta-amyloid 1-42); format: binding; conditions: for binding to soluble oligomeric A-beta: A-beta species on Sprague-Dawley naive rat brain section (hippocampus), fluorescence imaging, FIG. 2-3
Description: as §1
Soluble A-beta oligomer formation. 1 mg of human beta-amyloid 1-42 (H-5642, Bachem) and 500 uL of 1,1,1,3,3,3 hexafluoro-2-propanol (HFIP) (Aldrich) were chilled in separate bottles on ice for 30 minutes. Cold beta-amyloid 1-42 was solubilized with cold HFIP. The mixture was incubated for 1 hr at room temperature until it turned clear. The resulting solution was then dried to a film under vacuum. The film was dissolved again in cold HFIP and incubated another 1 hr at room temperature. The resulting solution was separated into aliquots in several microcentrifuge tubes. HFIP was removed under vacuum, and the films were stored at −20° C. until use. To prepare soluble oligomer, the film was dissolved in appropriate amount of dry DMSO (Sigma), and Ham's F12 media (Biosource) or PBS (Sigma, D8537) was added and incubated at 4° C. for 24 hours (final concentration of 200 uM or 0.9 mg/mL beta-amyloid in 2% DMSO).
as §2, §3, §4, §5

O=Cc1ccc(-c2oc3ccccc3c2CO)o1 [68B-3]
binding to A-beta fibrils [1]: bound
binding to soluble oligomeric A-beta [2]: bound
preferential binding, soluble A-beta relative to insoluble A-beta ([2]; stated as validated property of the binder): preferential binder for soluble A-beta

Cc1ccc2c(c1)sc(-c1ccc(N(C)C)cc1)[n+]2C.[Cl-] [Thioflavin T]
binding to A-beta fibrils [1]: bound
binding to soluble oligomeric A-beta [2]: bound
